Laboratory results: patent US20240197729A1, “ALK-5 Inhibitors and Uses Thereof” (Sumitomo Pharma Oncology, Inc., priority 2021, published 2024)

What was measured:
[1] = system: BMP-6/ALK2/Hepcidin pathway; experiment: ALK2 off-target assay, hepcidin mRNA in HepG2 hepatocytes; assay type: cell-based, human; settings: Homo sapiens; HepG2, 40 ng/ml BMP-6, 3 h; read-out: IC50, hepcidin mRNA expression
Protocol: In this study, LDN214117 (an ALK2 inhibitor available from Selleck Chemicals S7627) was included as a positive control, and vactosertib (an ALK5 inhibitor available from MedChem Express HY-19928) was included as a negative control.
HepG2 human hepatocytes (ATCC HB-8065) were seeded in EMEM (ATCC30-2003)+10% FBS in 96-well plate and allowed to grow overnight at 5% CO2 at 37° C. The next day, cells were pre-treated with selected compounds (Compound 01, 04 or 05) or one of the control compounds at various concentrations, or with vehicle (DMSO) for one hour. Cells were then stimulated with recombinant human BMP-6 (R&D Systems 507-BP-020) at a final concentration of 40 ng/ml, in the presence of test compound or DMSO for three hours. A no-BMP-6 stimulation condition was included for baseline hepcidin level measurement.
Hepcidin mRNA expression was measured by real-time RT-PCR with Cells-to-CT 1-Step TaqMan Kit (ThermoFisher A25603) following manufacturer's instructions. GAPDH levels were measured, and served as a normalization control. Hepcidin primer: TaqMan HAMP-FAM/MGB 20×(ThermoFisher 4331182); GAPDH primer: TaqMan GAPDH-VIC/MGB 20×(ThermoFisher 4326317E). Delta-delta Ct method was used to obtain relative Hepcidin expression.
The selected compounds and control compounds LDN214117 and vactosertib were tested at drug concentrations of 20 micromolar to 1.22 nanomolar at 4-fold serial dilution. All wells contained the same DMSO concentrations. IC50 values were calculated using nonlinear regression model with GraphPad Prism software. The results of the ALK-2 off-target assay are reported in Table 3B, where “++” indicates 0.1 μM<IC50≤1 μM and “+++” indicates […].

JAK signaling = experiment: JAK selectivity assay, HEK blue IL-12 reporter; assay type: cell-based; settings: HEK-Blue, 24 h, 12.5 ng/ml IL-12, 24 h
Protocol: The cells were purchased from Invivogen (Catalog Nr: hkb-il12) and maintained according to vendor instructions. On the day of the experiment, cells were harvested by repeated tapping of the flask to shake loose the cells attached to the bottom of the flask. Then, cells were harvested, washed and resuspended in DMEM media supplemented with 10% fetal calf serum. 30 Microliters of cell suspension was seeded into a 384-well tissue culture-coated plate containing approximately 10,000 total cells. […] Using the ECHO “Dose Response” software, the test compound was added in duplicate wells with a 3-fold dilution curve. DMSO was back-filled to normalize the DMSO across all wells. […] After 30 minutes of incubation at room temperature, the optical density was measured at 620 nanometer using the Perkin Elmer Envision plate reader. A color change can be detected at this wavelength when secreted alkaline phosphatase, which is triggered by IL-12 signaling, is present in the supernatant. […]

p-STAT3 (Tyr 705) = experiment: A549 xenograft assay, p-STAT3; assay type: in vivo, mice; settings: tumors 4 h after dosing
Text: To test compounds for inhibition of in vivo on-target activity (ALK5/TGF-bR1 inhibition) as well as potential Janus Kinase (JAK) signaling off-target activity, the A549 murine xenograft model was utilized. An ALK5 inhibitor (e.g., vactosertib) is expected to reduce the amount of the TGF-beta signaling molecule phospho-SMAD-2 (pSMAD2) in the A549 xenograft cells. The TGF-beta-mediated phosphorylation of SMAD2 in A549 cells takes place at amino acid residue four hundred and sixty-five and four hundred and sixty-seven (both are serine residues). A JAK inhibitor (e.g., ruxolitinib) is expected to reduce the phosphorylation of signal transducer and activator of transcription (STAT) proteins such as STAT3 at amino acid residue 705 (tyrosine).
At eight weeks of age, female athymic nude mice (purchased from Charles River) were injected with approximately 3.5 million A549 cells (ATCC, CCL-185). Specifically, cells were harvested and resuspended in plain RPMI media (no phenol red added) and Matrigel (Corning 356237) at a one to one ratio, and two hundred-microliters were injected into the right hind flank of each mouse. Tumors were measured every three days by caliper and as tumors reached an average of seventy-eighty millimeters cubed, mice were randomized in groups of three. All compounds were resuspended in 1-methyl-2-pyrrolidinone (Sigma 494496) (10%) plus 20% Solutol (Sigma 42966) in water (90%). Vactosertib and ruxolitinib were included as controls as ALK5 signaling inhibitor and JAK signaling inhibitor, respectively. Both controls were given at seventy-five milligrams per kilogram to three mice. The drug suspensions were sonicated for fifteen minutes to generate a fine particle suspension before being given to the mice. Mice were dosed (per oral gavage) with drug at one hundred, seventy-five, fifty, or ten milligrams per kilogram, with three mice per group. A vehicle control group with three mice was used to establish the baseline level of phospho-SMAD-2 in the tumor xenograft.
Four hours after drug administration, tumors were harvested, snap frozen and stored at negative eighty degrees Celsius until further processing. The phospho-SMAD-2 levels were determined using the Bio-Plex Pro™ Phospho-Smad2 (Ser465/Ser467) Set (BioRad 171V50019M). The phospho STAT3 levels were determined using the bead/antibody set from the MILLIPLEXMAP STAT Cell Signaling Magnetic Bead 5-Plex Kit (Millipore 48-610MAG). Both phospho SMAD-2 levels and phospho STAT3 levels were normalized to ß-Tubulin (MILLIPLEX MAP ß-Tubulin Total Magnetic Bead MAPmate™, Millipore 46-713MAG) or GAPDH (MILLIPLEX MAP GAPDH Total Magnetic Bead MAPmate™, Millipore 46-667MAG) levels from each sample. All analytes were analyzed in a multiplex fashion with the Bio-Plex Pro Cell Signaling Reagent Kit (BioRad 171304006M). Briefly, frozen tumor (fifteen to thirty milligrams) was lysed in 100 μl lysis buffer, processed in bead mill tube, and centrifuged. The resulting lysate was used at 1:50 dilution for the assay according to the manufacturer's instructions. Bead suspension was analyzed using the Luminex system (MAGPIX).

Compound | IC50 [1] | IC50 (JAK signaling) | Average % p-STAT3 (Tyr 705) of vehicle (p-STAT3 (Tyr 705); 10 mg/kg per oral gavage) | Average % p-STAT3 (Tyr 705) of vehicle (p-STAT3 (Tyr 705); 50 mg/kg per oral gavage) | Average % p-STAT3 (Tyr 705) of vehicle (p-STAT3 (Tyr 705); 75 mg/kg per oral gavage) | Average % p-STAT3 (Tyr 705) of vehicle (p-STAT3 (Tyr 705); 100 mg/kg per oral gavage)
Cc1nn(CC(F)(F)F)cc1Nc1cc(Nc2cnnc3c(C)cccc23)ccn1 [Compound 01, N2-[3-methyl-1-(2,2,2-trifluoroethyl)-1H-pyrazol-4-yl]-N4-(8-methylcinnolin-4-yl)pyridine-2,4-diamine] | ≥ 1000 nM | 3800 nM | 92% | 70% | 66% | 76%
Clc1cccc2c(Nc3ccnc(Nc4cccc(N5CCOCC5)c4)c3)cnnc12 [Compound 04, N4-(8-chlorocinnolin-4-yl)-N2-[3-(morpholin-4-yl)phenyl]pyridine-2,4-diamine] | 100 to 1000 nM | 3700 nM | 88% | 73% | 59% | 97%
Cc1cccc2c(Nc3ccnc(Nc4ccc(N5CCOCC5)cc4)c3)cnnc12 [Compound 05, N4-(8-methylcinnolin-4-yl)-N2-[4-(morpholin-4-yl)phenyl]pyridine-2,4-diamine] | 100 to 1000 nM |  | 107% | 85% | 77% | 93%
Cc1cccc(-c2[nH]c(CNc3ccccc3F)nc2-c2ccc3ncnn3c2)n1 [Vactosertib, vactosertib, reference compound] | ≥ 1000 nM | 18500 nM |  |  | 63% | 
